One data set concerns the target T1, NMDA-receptor subtype 2B (Rattus norvegicus, UniProt P35439+Q00960).
T1 construct: Membranes were prepared by homogenization of the whole brain minus cerebellum and medulla oblongata; from tissue; host or cells: rat whole brain minus cerebellum and medulla oblongata, membrane preparation
As to the kind of experiment: 3H-Ro 25-6981 binding (displacement) on rat brain membranes. Particulars: displacement of 5 nM 3H-Ro 25-6981, rat whole brain membranes (minus cerebellum and medulla oblongata), 2 hours at 4° C. The protocol:
^3H[R-(R*,S*)]-(α-(4-Hydroxy-phenyl)-β-methyl-4-(phenyl-methyl)-1-piperidine propanol)binding
Male Füllinsdorf albino rats weighing between 150-200 g were used. Membranes were prepared by homogenization of the whole brain minus cerebellum and medulla oblongata with a Polytron (10.000 rpm, 30 seconds), in 25 volumes of a cold Tris-HCl 50 mM, EDTA 10 mM, pH 7.1 buffer. The homogenate was centrifuged at 48,000 g for 10 minutes at 4° C. The pellet was resuspended using the Polytron in the same volume of buffer and the homogenate was incubated at 37° C. for 10 minutes. After centrifugation the pellet was homogenized in the same buffer and frozen at −80° C. for at least 16 hours but not more than 10 days. For the binding assay the homogenate was thawed at 37° C., centrifuged and the pellet was washed three times as above in a Tris-HCl 5 mM, pH 7.4 cold buffer. The final pellet was resuspended in the same buffer and used at a final concentration of […]. ^3H-Ro 25-6981 binding experiments were performed using a Tris-HCl 50 mM, pH 7.4 buffer. For displacement experiments 5 nM of ^3H-Ro 25-6981 were used and non specific binding was measured using 10 mM of tetrahydroisoquinoline and usually it accounts for 10% of the total. The incubation time was 2 hours at 4° C. and the assay was stopped by filtration on Whatmann GF/B glass fiber filters (Unifilter-96, Packard, Zürich, Switzerland). The filters were washed 5 times with cold buffer. The radioactivity on the filter was counted on a Packard Top-count microplate scintillation counter after addition of […] of microscint 40 (Canberra Packard S.A., Zuirich, Switzerland).
The effects of compounds were measured using a minimum of 8 concentrations and repeated at least once.

The structures appear in SMILES notation.

T1 sequence (Q00960 27-1482, other chains not shown): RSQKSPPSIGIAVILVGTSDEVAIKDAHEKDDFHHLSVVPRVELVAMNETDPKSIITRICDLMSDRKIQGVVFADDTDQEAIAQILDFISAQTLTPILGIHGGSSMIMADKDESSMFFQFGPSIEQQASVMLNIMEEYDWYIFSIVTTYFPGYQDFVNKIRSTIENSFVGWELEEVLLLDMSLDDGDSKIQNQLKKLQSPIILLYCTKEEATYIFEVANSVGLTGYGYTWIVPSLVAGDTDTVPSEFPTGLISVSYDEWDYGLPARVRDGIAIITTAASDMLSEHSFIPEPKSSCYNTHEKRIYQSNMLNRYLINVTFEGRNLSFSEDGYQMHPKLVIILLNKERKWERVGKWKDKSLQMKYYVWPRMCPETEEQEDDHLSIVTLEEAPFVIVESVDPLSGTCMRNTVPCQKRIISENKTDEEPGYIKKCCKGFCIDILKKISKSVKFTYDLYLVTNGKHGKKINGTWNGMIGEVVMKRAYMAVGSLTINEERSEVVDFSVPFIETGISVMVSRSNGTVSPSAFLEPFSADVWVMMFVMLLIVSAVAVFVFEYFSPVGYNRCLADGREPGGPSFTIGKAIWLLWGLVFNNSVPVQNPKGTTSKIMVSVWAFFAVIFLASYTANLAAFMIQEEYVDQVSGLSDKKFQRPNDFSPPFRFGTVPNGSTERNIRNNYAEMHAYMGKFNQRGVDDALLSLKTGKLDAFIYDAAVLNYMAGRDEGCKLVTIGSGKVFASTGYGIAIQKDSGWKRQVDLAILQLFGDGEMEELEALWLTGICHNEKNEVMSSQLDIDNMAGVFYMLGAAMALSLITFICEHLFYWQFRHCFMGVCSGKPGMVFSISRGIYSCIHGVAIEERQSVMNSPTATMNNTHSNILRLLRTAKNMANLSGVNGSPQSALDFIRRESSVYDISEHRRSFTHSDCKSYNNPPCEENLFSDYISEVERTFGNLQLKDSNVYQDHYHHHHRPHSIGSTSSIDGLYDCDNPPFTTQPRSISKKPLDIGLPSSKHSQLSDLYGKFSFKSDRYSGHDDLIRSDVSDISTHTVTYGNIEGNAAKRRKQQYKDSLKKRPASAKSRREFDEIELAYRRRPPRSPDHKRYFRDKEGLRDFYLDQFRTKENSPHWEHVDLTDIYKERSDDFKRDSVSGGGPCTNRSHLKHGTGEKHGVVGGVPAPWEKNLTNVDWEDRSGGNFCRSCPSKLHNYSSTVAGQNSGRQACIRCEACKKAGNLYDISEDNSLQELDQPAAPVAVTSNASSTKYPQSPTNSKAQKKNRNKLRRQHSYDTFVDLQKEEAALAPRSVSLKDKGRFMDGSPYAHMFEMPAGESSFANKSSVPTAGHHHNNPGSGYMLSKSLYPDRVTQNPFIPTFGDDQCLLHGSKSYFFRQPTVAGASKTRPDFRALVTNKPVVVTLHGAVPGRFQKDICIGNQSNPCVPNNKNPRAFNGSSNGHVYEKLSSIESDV

For `Cc1nccn1Cc1cn(-c2ccc(Cl)c(Cl)c2)cn1.Cl.Cl` [Example 2, 1H-Imidazole, 1-[[1-(3,4-Dichlorophenyl)-1H-imidazol-4-yl]methyl]-2-methyl-, Hydrochloride (1:2)], the melting point is more than 250 °C. On NMDA-receptor subtype 2B, this compound displayed an IC50 of 10 nM.

For the compound `Cc1nccn1Cc1cn(-c2ccc(OC(F)(F)F)c(Cl)c2)cn1.Cl.Cl` [Example 186, 1H-Imidazole, 1-[[1-[3-Chloro-4(trifluoromethoxy)phenyl]-1H-imidazol-4-yl]methyl]-2-methyl-, Hydrochloride (1:2)], the melting point is 221 to 222 °C. The compound further had a half-inhibitory concentration (IC50) at NMDA-receptor subtype 2B of 52 nM.

Regarding `CCc1cccc(-n2cnc(Cn3ccnc3)c2)c1.Cl.Cl` [Example 161, 1-(3-Ethyl-phenyl)-4-imidazol-1-ylmethyl-1H-imidazole Hydrochloride (1:2)], the melting point is > 190 °C (dec.). This compound gave an IC50 at NMDA-receptor subtype 2B of 50 nM.

As for `Cc1nccn1Cc1cn(-c2cccc(OC(F)(F)F)c2)cn1.Cl.Cl` [Example 170, 1H-Imidazole, 2-Methyl-1-[[1-[3-(trifluoromethoxy)phenyl]-1H-imidazol-4-yl]methyl]-, Hydrochloride (1:2)], the melting point was in the range of 221 to 223 °C. For the same compound, the half-inhibitory concentration (IC50) on NMDA-receptor subtype 2B is 39 nM.

For `Cc1nccn1Cc1cn(-c2cccc(C(C)(F)F)c2)cn1.Cl.Cl` [Example 147, 1H-Imidazole, 1-[[1-[3-(1,1-Difluoroethyl)phenyl]-1H-imidazol-4-yl]methyl]-2-methyl-, Hydrochloride (1:2)], the melting point is > 200 °C (dec.). Moreover, the IC50 at NMDA-receptor subtype 2B turned out to be 9.2 nM.

As to `Cc1nccn1Cc1cn(-c2cc(F)cc(C(F)(F)F)c2)cn1.Cl.Cl` [Example 178, 1H-Imidazole, 1-[[1-[3-Fluoro-5(trifluoromethyl)phenyl]-1H-imidazol-4-yl]methyl]-2-methyl-, Hydrochloride (1:2)], the melting point is more than 250 °C. This compound also registered an IC50 at NMDA-receptor subtype 2B of 74 nM.

Consider `Cc1nccn1Cc1cn(-c2cccc(Br)c2)cn1.Cl.Cl` [Example 192, 1H-Imidazole, 1-[[1-(3-Bromophenyl)-1H-imidazol-4-yl]methyl]-2-methyl-, Hydrochloride (1:2)], for which the melting point is 205 to 207 °C. On NMDA-receptor subtype 2B, this compound came in with an IC50 of 55 nM.

Compound `CCc1nccn1Cc1cn(-c2ccc(Cl)c(Cl)c2)cn1.Cl.Cl` [Example 3, 1H-Imidazole, 1-[[1-(3,4-Dichlorophenyl)-1H-imidazol-4-yl]methyl]-2-ethyl-, Hydrochloride (1:2)] returned a melting point of more than 250 °C. In addition, the IC50 on NMDA-receptor subtype 2B is 12 nM.

`Cc1cc(-n2cnc(Cn3ccnc3C)c2)ccc1Cl.Cl.Cl` [Example 11, 1H-Imidazole, 1-[[1-(4-Chloro-3-methylphenyl)-1H-imidazol-4-yl]methyl]-2-methyl-, Hydrochloride (1:2)] displayed a melting point of 218 to 220 °C. The compound further registered a half-maximal inhibitory concentration (IC50) at NMDA-receptor subtype 2B of 5 nM.

In turn, `CCc1nccn1Cc1cn(-c2ccc3c(c2)CCC3)cn1.Cl.Cl` [Example 17, 1H-Imidazole, 1-[[1-(2,3-Dihydro-1H-inden-5-yl)-1H-imidazol-4-yl]methyl]-2-ethyl-, Hydrochloride (1:2)] had a melting point of 240 to 241 °C. The compound also came in with a concentration for half-maximal inhibition (IC50) on NMDA-receptor subtype 2B of 12 nM.

As for `CCc1cccc(-n2cnc(Cn3ccnc3CC)c2)c1.Cl.Cl` [Example 160, 1H-Imidazole, 2-Ethyl-1-[[1-(3-ethylphenyl)-1H-imidazol-4-yl]methyl]-, Hydrochloride (1:2)], the melting point is > 200 °C (dec.). For the same compound, on NMDA-receptor subtype 2B, the IC50 was 16 nM.

`CCc1nccn1Cc1cn(-c2ccc(F)c(Cl)c2)cn1.Cl.Cl` [Example 94, 1H-Imidazole, 1-[[1-(3-Chloro-4-fluorophenyl)-1H-imidazol-4-yl]methyl]-2-ethyl-, Hydrochloride (1:2)] gave a melting point of 248 to 250 °C. In addition, the IC50 at NMDA-receptor subtype 2B came to 21 nM.

Consider `Cc1nccn1Cc1cn(-c2cccc(SC(F)(F)F)c2)cn1.Cl.Cl` [Example 144, 1H-Imidazole, 2-Methyl-1-[[1-[3-(trifluoromethylthio)phenyl]-1H-imidazol-4-yl]methyl]-, Hydrochloride (1:2)], for which the melting point was 169 to 170 °C. Further, the half-maximal inhibitory concentration (IC50) on NMDA-receptor subtype 2B turned out to be 38 nM.

On to `Cc1nccn1Cc1cn(-c2ccc(F)c(C(F)F)c2)cn1.Cl.Cl` [Example 163, 1H-Imidazole, 1-[[1-(3-Difluoromethyl-4-fluorophenyl)-1H-imidazol-4-yl]methyl]-2-methyl-, Hydrochloride (1:2)], for which the melting point was 223 to 225 °C (dec.). This compound yielded an IC50 at NMDA-receptor subtype 2B of 17 nM.

For the compound `Cc1nccn1Cc1cn(-c2cccc(C(C)C)c2)cn1.Cl.Cl` [Example 152, 1H-Imidazole, 1-[[1-(3-Isopropylphenyl)-1H-imidazol-4-yl]methyl]-2-methyl-, Hydrochloride (1:2)], the melting point is > 200 °C (dec.). Besides, the 50% inhibitory concentration (IC50) on NMDA-receptor subtype 2B amounted to 10 nM.

Take `CCc1nccn1Cc1cn(-c2cccc(C(C)(F)F)c2)cn1.Cl.Cl` [Example 146, 1H-Imidazole, 1-[[1-[3-(1,1-Difluoroethyl)phenyl]-1H-imidazol-4-yl]methyl]-2-ethyl-, Hydrochloride (1:2)]: the melting point was 130 to 134 °C (dec.). The compound further gave an IC50 on NMDA-receptor subtype 2B of 8 nM.

Regarding `COc1cc(-n2cnc(Cn3ccnc3C)c2)cc(C(F)(F)F)c1.Cl.Cl` [Example 180, 1H-Imidazole, 1-[[1-[3-Methoxy-5(trifluoromethyl)phenyl]-1H-imidazol-4-yl]methyl]-2-methyl-, Hydrochloride (1:2)], the melting point is 246 to 247 °C. Moreover, at NMDA-receptor subtype 2B, the IC50 worked out at 50 nM.

In the case of `Cc1cc(-n2cnc(Cn3cnc(C)c3C)c2)ccc1Cl.Cl.Cl` [Example 13, 1H-Imidazole, 1-[[1-(4-Chloro-3-methylphenyl)-1H-imidazol-4-yl]methyl]-4,5-dimethyl-, Hydrochloride (1:2)], the melting point was more than 250 °C. On NMDA-receptor subtype 2B, this compound registered an IC50 of 95 nM.

Take `Cc1nccn1Cc1ncn(-c2ccc(Cl)c(Cl)c2)c1C.Cl.Cl` [Example 103, 1H-Imidazole, 1-(3,4-Dichlorophenyl)-5-methyl-4-[(2-methyl-1H-imidazol-1-yl)methyl]-, Hydrochloride (1:2)]: the melting point is > 240 °C (dec.). Moreover, the IC50 on NMDA-receptor subtype 2B stood at 43 nM.

For the compound `CCCc1nccn1Cc1cn(-c2ccc(Cl)c(Cl)c2)cn1.Cl.Cl` [Example 1, 1H-Imidazole, 1-[[1-(3,4-Dichlorophenyl)-1H-imidazol-4-yl]methyl]-2-propyl-, Hydrochloride (1:2)], the melting point was 241 to 243 °C. Moreover, the half-maximal inhibitory concentration (IC50) at NMDA-receptor subtype 2B worked out at 7 nM.

`CCc1nccn1Cc1cn(-c2cc(F)cc(C(F)(F)F)c2)cn1.Cl.Cl` [Example 177, 1H-Imidazole, 2-Ethyl-1-[[1-[3-fluoro-5(trifluoromethyl)phenyl]-1H-imidazol-4-yl]methyl]-, Hydrochloride (1:2)] yielded a melting point of 243 to 244 °C. This compound also came in with an IC50 at NMDA-receptor subtype 2B of 37.5 nM.

In the case of `Cc1nccn1Cc1cn(-c2cccc(C3CC3)c2)cn1.Cl.Cl` [Example 162, 1H-Imidazole, 1-[[1-(3-Cyclopropylphenyl)-1H-imidazol-4-yl]methyl]-2-methyl-, Hydrochloride (1:2)], the melting point fell in the range of 174 to 175 °C. The compound also gave an IC50 at NMDA-receptor subtype 2B of 16 nM.

Compound `Cc1cc(-n2cnc(Cn3ccnc3C)c2)ccc1F.Cl.Cl` [Example 24, 1H-Imidazole, 1-[[1-(4-Fluoro-3-methylphenyl)-1H-imidazol-4-yl]methyl]-2-methyl-, Hydrochloride (1:2)] displayed a melting point of 210 to 212 °C. This compound had a 50% inhibitory concentration (IC50) on NMDA-receptor subtype 2B of 16 nM.

As to `Cc1ccc(-n2cnc(Cn3ccnc3)c2)cc1Cl.Cl.Cl` [Example 89, 1H-Imidazole, 1-(3-Chloro-4-methylphenyl)-4-(1H-imidazol-1-yl-methyl)-, Hydrochloride (1:2)], the melting point fell in the range of 218 to 220 °C. The compound further returned an IC50 on NMDA-receptor subtype 2B of 48 nM.

In the case of `CC(C)c1cccc(-n2cnc(Cn3ccnc3)c2)c1.Cl.Cl` [Example 154, 4-Imidazol-1-ylmethyl-1-(3-isopropyl-phenyl)-1H-imidazole Hydrochloride (1:2)], the melting point lay within 200 to 206 °C. At NMDA-receptor subtype 2B, the half-inhibitory concentration (IC50) amounted to 48 nM.

On to `Cl.Cl.Fc1ccc(-n2cnc(Cn3ccnc3)c2)cc1C(F)F` [Example 165, 1-(3-Difluoromethyl-4-fluoro-phenyl)-4-imidazol-1-ylmethyl-1H-imidazole Hydrochloride (1:2)], for which the melting point was in the range of 239 to 241 °C. The compound also yielded an IC50 on NMDA-receptor subtype 2B of 46 nM.

In the case of `Cl.Cl.Nc1nccn1Cc1cn(-c2ccc3c(c2)OCO3)cn1` [Example 224, 1-(1-Benzo[1,3]dioxol-5-yl-1H-imidazol-4-ylmethyl)-1H-imidazol-2-ylamine Hydrochloride (1:2)], the melting point is > 245 °C (dec.). Also, the concentration for half-maximal inhibition (IC50) at NMDA-receptor subtype 2B turned out to be 10 nM.

As a reminder, the melting point is the temperature, or range, at which the solid turns liquid. What is called IC50 is the point on the concentration scale where inhibition reaches its midpoint. High values mean lower potency, low ones higher potency.

These data come from patent publication US6667335B2, “Imidazole derivatives” (Hoffmann-La Roche Inc., priority 2001, dated 2003).
